Holding throughout (experiment): growth of human tumour cells (NCI), 48 h
For assay [1], the system named is A498 renal.
Assay [2] has as its system DU-145 prostate.
In assay [3] the test system is HCT-116 colon.
Assay [4] concerns IGROV1 ovarian.
Assay [5] deals with KM12 colon.
Assay [6] has as its system OVCAR-5 ovarian.
In assay [7] the test system is PC-3 prostate.
For assay [8], the system named is SK-MEL-28 melanoma.
Assay [9] relates to SNB-19 CNS.
Assay [10] has as its system SR leukemia.

Data on 30 compounds can be found in PubChem BioAssay (NCI).

Values joined by “and” are separate entries in the source; they are usually repeats but may differ in a detail not shown here. Equal values may be shown once.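 Where inhibition never reached the appropriate level, the endpoint shown equals the highest concentration tested. Otherwise, values were interpolated linearly from a five-concentration, 48-hour dose response in 96-well plates. GI50 marks 50% less growth. TGI marks complete inhibition of growth.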 Some results are limits rather than exact numbers.

Take `COc1ccc(/[N+]([O-])=C/c2ccccc2OC(=S)S)cc1`: the TGI in assay [1] was greater than 100 µM; in assay [2], greater than 100 µM; in assay [3] it was 73.5 µM; in assay [4], greater than 100 µM; in assay [5] it was greater than 100 µM; in assay [6] it was greater than 100 µM. For the same compound, the TGI in assay [7], in [8], in assay [9] and in assay [10] was greater than 100 µM in each case.
In the case of `CSC(=NCCCN=C(NS(=O)(=O)c1ccc(Cl)cc1)SC)NS(=O)(=O)c1ccc(Cl)cc1`, the TGI is 73.1 µM in assay [1]; greater than 100 µM in assay [2]; greater than 100 µM in assay [3]; greater than 100 µM in assay [4]; greater than 100 µM in assay [6]; 35.2 µM in assay [7]. The TGI in assay [8], in assay [9] and in assay [10] was greater than 100 µM in each case.
For the compound `CC(=O)Oc1cc(OC(C)=O)c2c(c1C)CC[C@@H]1[C@@H]2CC[C@]2(C)[C@@H](OC(C)=O)CC[C@@H]12`, the TGI in assay [1] came out at 34.8 µM; in assay [2], 61 µM; in assay [3] it was 29.2 µM; in assay [4] it was 34.4 µM; in assay [5] it was 31.5 µM; in [7], 29 µM. Besides, the TGI in [8] came to 33 µM; in [9], 33.3 µM; in [10], 73.6 µM.
Regarding `Clc1cc2ncn(C3CCCO3)c2cc1Cl` (configuration not stated), the TGI in assay [2] was greater than 100 µM; in assay [3] it was greater than 100 µM; in [4], 69.5 µM; in assay [5], greater than 100 µM; in assay [6], greater than 100 µM; in assay [7], greater than 100 µM. Also, the TGI in assay [8], in assay [9] and in assay [10] was greater than 100 µM in each case.
As for `CCOC(=O)c1sc2nc(SC)nc3c2c1NCN3c1ccccc1Cl`, the TGI in assay [1], in [2], in [3], in assay [4], in assay [5] and in assay [6] was greater than 100 µM each time. In addition, the TGI in assay [7], in assay [8] and in [9] was greater than 100 µM in each case.
In the case of `Nc1nc(Nc2cc(F)c(Cl)c(F)c2)cc(=O)[nH]1`, the TGI in assay [1], in assay [2], in [3], in assay [4], in assay [5] and in assay [6] was greater than 100 µM throughout. The TGI in assay [7], in [8] and in [9] was greater than 100 µM throughout.
For the compound `COc1cc(O)c2c(=O)c(O)c(-c3ccc(O)c(O)c3)oc2c1`, the TGI in [1] is 14.9 µM; in [2], 25.5 µM; in [3], 45.5 µM; in [4] it was greater than 100 µM; in assay [6], 47.8 µM; in assay [7], greater than 100 µM. Further, the TGI in assay [8], in assay [9] and in assay [10] was greater than 100 µM each time.
As for `COc1ccc2c(C=O)c3n(c(=O)c2c1OC)CCc1cc2c(cc1-3)OCO2`, the TGI in [1], in [2], in assay [3], in assay [4], in assay [5] and in assay [6] was greater than 100 µM throughout. Moreover, the TGI in assay [7], in assay [8] and in assay [9] was greater than 100 µM throughout.
Regarding `CCCCSC1=N/C(=C\c2ccccc2O)C(Cl)=N1`, the TGI in [1], in assay [2], in assay [3], in [4], in [5] and in assay [6] was greater than 100 µM each time. The TGI in assay [7], in assay [8] and in [9] was greater than 100 µM each time.
As to `O=C(Cn1c(-c2ccccc2)cc2ccccc21)N1CCOCC1`, the TGI in assay [1], in assay [2], in assay [3], in [4], in assay [5] and in assay [6] was greater than 100 µM in each case. Further, the TGI in assay [7], in [8] and in [9] was greater than 100 µM throughout.
For `O=C(c1ccccc1)n1c2ccc(Br)cc2c2nc3ccccc3nc21`, the TGI in [2], in assay [3], in assay [4], in assay [5], in assay [6] and in assay [7] was greater than 100 µM throughout. For the same compound, the TGI in [8], in [9] and in assay [10] was greater than 100 µM throughout.
Take `CCCCC(C)(C/C=C/[C@@H]1[C@@H](C(O)CCCCCC(=O)OC)C(=O)C[C@H]1O[Si](C)(C)C(C)(C)C)O[Si](C)(C)C` (some centres not stated): the TGI in [2], in assay [3], in [4], in assay [5], in [6] and in assay [7] was greater than 100 µM each time. Further, the TGI in [8], in assay [9] and in assay [10] was greater than 100 µM in each case.
Regarding `COC1=C(C)C(=O)C2=C(C1=O)C1C3CC4=C(C(=O)C(OC)=C(C)C4=O)C(CNC(=O)C(C)=O)N3C(C#N)C(C2)N1C` (configuration not stated), the GI50 in assay [1] was 0.0634 µM; in assay [2], 0.0033 µM; in assay [8] it was 0.000169 µM. Moreover, the TGI in [2] was 0.0862 µM; in assay [4] it was 0.199 µM and 0.0948 µM; in assay [5], 0.0313 µM and 0.0726 µM; in assay [6] it was 0.0768 µM and 0.0776 µM; in assay [7], 0.195 µM and 0.0778 µM; in [9] it was 1.45 µM and 0.958 µM.
Consider `CC(=O)Oc1c(OC(C)C)cc(=O)n2ccsc12`, for which the TGI in assay [1], in [2], in assay [3], in [4], in assay [5] and in assay [6] was greater than 100 µM each time. The TGI in assay [7], in assay [8] and in assay [9] was greater than 100 µM throughout.
Take `CCCSC1=N/C(=C\c2ccco2)C(=O)N1`: the TGI in assay [1], in [2], in assay [3], in assay [4], in [5] and in [6] was greater than 100 µM each time. Moreover, the TGI in [7], in [8] and in [9] was greater than 100 µM throughout.
In the case of `CC(C)=C[C@@H]1C[C@H](C)[C@H]2CC[C@H](C)[C@H]3C(=O)C(O)=C(C)C(=O)[C@]123`, the TGI in assay [1], in [2], in assay [3], in [4], in assay [5] and in assay [6] was greater than 100 µM in each case. The TGI in assay [7], in assay [8] and in assay [9] was greater than 100 µM throughout.
As to `CNc1nc(OC)c2c(n1)[n+](C)cn2C`, the TGI in assay [1], in assay [2], in assay [3], in [4], in assay [5] and in assay [6] was greater than 100 µM in each case. Further, the TGI in assay [7], in [8] and in assay [9] was greater than 100 µM throughout.
Regarding `N#Cc1c(N)n(-c2nc3ccccc3s2)c(=O)c2cc([N+](=O)[O-])ccc12`, the TGI in assay [1] is 98.1 µM; in [2] it was greater than 100 µM; in [3] it was greater than 41.9 µM; in assay [5], greater than 51.3 µM; in [6], greater than 79 µM; in assay [7], greater than 52.1 µM. Besides, the TGI in assay [8] is greater than 100 µM; in assay [9], greater than 77.1 µM; in assay [10] it was 56.2 µM.
As for `O=CC12CCCN1CCC2`, the TGI in assay [2], in [3], in assay [4], in [6], in [7] and in assay [8] was greater than 100 µM each time. Moreover, the TGI in [9] and in [10] was greater than 100 µM in each case.
For the compound `CO/C(N)=C(\C#N)N=Cc1cccs1`, the TGI in assay [1], in assay [2], in assay [3], in [4], in [5] and in assay [6] was greater than 100 µM throughout. In addition, the TGI in assay [7], in assay [8] and in assay [9] was greater than 100 µM each time.
As to `FC(F)(Sc1nc2ccccc2[nH]1)c1nc2ccccc2o1`, the TGI in [1], in assay [2], in assay [3], in assay [4], in [5] and in [6] was greater than 100 µM in each case. Moreover, the TGI in [7], in assay [8] and in assay [10] was greater than 100 µM each time.
In the case of `COc1ccc(-c2cc(-c3ccc(Nc4ccnc5cc(C(F)(F)F)ccc45)cc3)nc(N)c2C#N)c2ccccc12`, the TGI in [1], in assay [2], in [3], in assay [5], in [6] and in [7] was greater than 100 µM in each case. Further, the TGI in assay [9] and in assay [10] was greater than 100 µM throughout.
Regarding `Cc1ccc(C(=O)C2CC3(CCC2(O)c2ccc(C)cc2)CC(=O)Nc2ccccc2C3=O)cc1` (configuration not stated), the TGI in assay [1], in [2], in assay [3], in [4], in assay [6] and in assay [7] was greater than 100 µM in each case. In addition, the TGI in assay [8], in [9] and in assay [10] was greater than 100 µM in each case.
Take `C/C(=C\CNc1ncnc2c1ncn2CCC#N)CO`: the TGI in assay [2], in [3], in assay [4], in assay [5], in assay [6] and in [7] was greater than 100 µM in each case. The TGI in assay [8], in [9] and in assay [10] was greater than 100 µM throughout.
For the compound `Nc1nc2c(c(-c3ccc(F)cc3)n1)COC/C2=C\c1ccc(F)cc1`, the TGI in assay [1] was greater than 100 µM; in assay [2], greater than 100 µM; in assay [4], greater than 100 µM; in assay [5] it was 29 µM; in assay [6], greater than 100 µM; in assay [7], greater than 100 µM. The TGI in assay [8] was greater than 100 µM; in assay [9], greater than 100 µM; in [10], 43.2 µM.
As for `O=C1Cc2c([nH]c3c(Br)cccc23)-c2ccccc2N1`, the TGI in [1], in assay [2], in assay [4], in assay [5], in [6] and in assay [7] was greater than 100 µM in each case. In addition, the TGI is greater than 100 µM in [9] and 55.3 µM in [10].
Consider `CCOC(=O)C1(NC(=O)OC(C)(C)C)CCc2[nH]oc(=O)c2C1` (configuration not stated), for which the TGI in assay [1], in [2], in [3], in assay [4], in [5] and in [6] was greater than 100 µM in each case. In addition, the TGI in assay [7], in assay [8] and in [9] was greater than 100 µM in each case.
Turning to `COc1ccc(OC)c2c(Nc3ccc(S(=O)(=O)O)c4cc(S(=O)(=O)O)cc(S(=O)(=O)O)c34)cc(C)nc12`, the TGI in assay [1], in assay [2], in assay [3], in assay [4], in [5] and in assay [6] was greater than 100 µM throughout. Further, the TGI in [7] and in assay [8] was greater than 100 µM each time.
Take `Nc1nc(N)c2ncn(Cc3ccccc3)c2n1`: the TGI in assay [1], in [2], in assay [3], in [4], in [5] and in assay [6] was greater than 100 µM in each case. Moreover, the TGI in [7], in assay [8] and in assay [9] was greater than 100 µM throughout.
Regarding `Cc1nnc(N)s/c1=N/O`, the TGI in [1], in assay [2], in assay [3], in assay [4], in [5] and in [6] was greater than 100 µM in each case. Further, the TGI in [7], in assay [8] and in [9] was greater than 100 µM each time.
